Data: patent US20230381142A1, “ANTILEISHMANIAL COMPOUNDS, COMPOSITIONS AND USE THEREOF” (TRUSTEES OF BOSTON UNIVERSITY, priority 2022, published 2023)
In brackets after ≈: the same amount, converted by molar mass.

Columns and labels:
[1] = system: host THP-1 macrophages; assay: GSK inMac assay, host cell toxicity readout (LD MAC); type: cell-based, human; conditions: Homo sapiens, THP-1, cytotoxicity against host THP-1 macrophages
Procedure, shortened: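 Intramacrophage L. donovani assay in THP-1 macrophages; host toxicity taken from host cell number per well, giving MAC EC50. Run alongside amastigote-per-cell and infected-cell readouts in the same wells.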

[2] = system: HepG2 cells; assay: HepG2 cytotoxicity; type: cell-based; conditions: Homo sapiens; toxicity against HepG2 cells
Procedure: Given the literature precedents described above and the apparent narrow tolerance for R^3 substitutions observed in the primary screen compounds, a thorough and methodical assessment was undertaken of tolerated groups at the three points of diversity (R^1/R^2/R^3) for the core. At this stage of the project, all analogues were assessed using a battery of assays performed in-house at GlaxoSmithKline. For antileishmanial activity, GSK's inMac assay was utilized. This assay provides two readouts of compound potency: average number of intracellular amastigotes per infected cell (AMMAC) EC50, percentage of infected cells per well (INFCELL) EC50, as well as a toxicity output derived from the number of host cells (MAC EC50). In addition, compounds were assessed for toxicity against HepG2 cells (HEPG2 EC50). Here, AMMAC EC50 values were focused on for relative potency assessments. […] It should be noted that for all compounds assessed in this project, the measured toxicity against THP-1 macrophages either equaled or exceeded that of HepG2 hepatocytes, therefore the MAC SI is used here as the more conservative estimate of therapeutic index.

[3] = Kinetic aqueous solubility by CLND; type: physicochemical; conditions: kinetic from dmso stock, high-throughput CLND
Procedure: Solubility of compounds using ChemiLuminescent Nitrogen Detection (CLND) was measured as described. Solubility of compounds using Charged Aerosol Detection (CAD) was measured as described. Solubility of solid compounds in Fasted Simulated Intestinal Fluid (FaSSIF) was measured as described.

[4] = system: L. donovani intracellular amastigotes infecting THP-1 macrophages; assay: GSK intramacrophage L. donovani assay (LD AMMAC, inMac; Assay Conditions C); type: cell-based; conditions: Leishmania donovani; growth inhibition of L. donovani intracellular amastigotes infecting THP-1 macrophages; read-out: LD AMMAC EC50
Procedure, shortened: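 L. donovani amastigotes within THP-1 macrophages; EC50 based on average intracellular amastigotes per infected cell (AMMAC). Infected-cell percentage (INFCELL) and host-cell number (MAC) also read, the latter as toxicity output.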

[5] = target: human serum albumin (Homo sapiens, UniProt P02768); assay: Human serum albumin (HSA) binding, chromatographic; type: in vitro ADME
Sequence of human serum albumin (P02768 25-609): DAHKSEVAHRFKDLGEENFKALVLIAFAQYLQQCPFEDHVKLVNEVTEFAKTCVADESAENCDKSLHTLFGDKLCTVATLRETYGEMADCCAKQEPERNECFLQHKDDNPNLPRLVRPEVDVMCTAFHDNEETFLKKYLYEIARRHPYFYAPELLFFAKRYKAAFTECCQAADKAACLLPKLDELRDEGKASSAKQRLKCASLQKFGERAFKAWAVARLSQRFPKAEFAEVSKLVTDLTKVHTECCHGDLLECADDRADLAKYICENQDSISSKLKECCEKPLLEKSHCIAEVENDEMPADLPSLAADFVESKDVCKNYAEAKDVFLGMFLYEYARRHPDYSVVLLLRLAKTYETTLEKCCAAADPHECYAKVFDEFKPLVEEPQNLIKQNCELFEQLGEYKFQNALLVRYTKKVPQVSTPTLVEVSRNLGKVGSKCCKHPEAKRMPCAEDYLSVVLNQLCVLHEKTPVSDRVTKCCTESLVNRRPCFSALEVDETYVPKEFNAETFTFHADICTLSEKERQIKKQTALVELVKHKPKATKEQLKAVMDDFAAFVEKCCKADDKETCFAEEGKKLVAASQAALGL
Procedure: The percentage of compound bound to human serum albumin was measured using a chromatographic method as described. Briefly, each compound was assayed on an immobilized HSA column and gradient retention times measured, with chromatographic peak detection by UV. Each retention time was then converted to a % HSA bound value using a calibration set of compounds with a known % HSA binding.

[6] = Property forecast index (PFI = ChromLogD7.4 + aromatic rings); type: physicochemical
Procedure: At the outset of the project, compound 1 was evaluated against GSK's established criteria for antileishmanial compound advancement (Table 2). Some of these assessments were performed on racemic 1, while chiral separation was also pursued of the 1 racemate to determine the active enantiomer. […] Based on this promising profile, it progressed into medicinal chemistry optimization to better understand structure-activity relationships (SAR) toward improved potency, as well as structure-property relationships (SPR) with an eye toward reducing PFI and plasma protein binding.

[7] = Artificial membrane permeability (AMP); type: in vitro ADME; conditions: PAMPA, pH 7.4
Procedure: Passive permeability of compounds via rate of permeation through an artificial phospholipid membrane at pH 7.4 was measured in a high-throughput format, in duplicate. A solution of 1.8% phosphatidylcholine in 1% decane was added to a 96-well Millicell filter plate along with 250 μL of 50 mM phosphate buffer, pH 7.4 on the donor side, and 100 μL of the same buffer solution on the receiver side. The assay plate was shaken for 45 minutes before adding test compounds. Test compounds were then added to the filter plate and then incubated at room temperature with shaking for three hours. The donor and receiver solutions were next transferred to a 384-well plate for analysis by LC/MS.

[8] = aqueous (not further specified)

SMILES | EC50 [1] | EC50 [2] | solubility [3] | EC50 [4] | HSA Binding [5] | PFI [6] | Papp at 3 h [7] | solubility [3, 8] | solubility ([3]; aqueous medium (not further specified))
COc1ccc(N2C(=O)c3[nH]nc(CCC(C)C)c3C2c2ccc(F)cc2)cc1 (stereo not drawn) [Compound 9] | 31.6 µM | 79.4 µM | 15 µM (≈ 5.9 µg/mL) | 2.5 µM | 98.0% | 9.1 | 10 ×10⁻⁶ cm/s | – | –
COc1ccc(N2C(=O)c3[nH]nc(CC(C)(C)C)c3C2c2ccc(F)cc2)cc1 (stereo not drawn) [Compound 10] | 25.1 µM | 39.8 µM | 36 µM (≈ 14.2 µg/mL) | 2.5 µM | 97.4% | 9.0 | 17 ×10⁻⁶ cm/s | – | –
C=CCCc1n[nH]c2c1C(c1ccc(F)cc1)N(c1ccc(OC)cc1)C2=O (stereo not drawn) [Compound 12] | 3.2 µM | 50.1 µM | 135 µM (≈ 51 µg/mL) | 1.6 µM | 97.5% | 8.1 | 41 ×10⁻⁶ cm/s | – | –
C=C(C)CCc1n[nH]c2c1C(c1ccc(F)cc1)N(c1ccc(OC)cc1)C2=O (stereo not drawn) [Compound 13] | 1.6 µM | 50.1 µM | 52 µM (≈ 20.4 µg/mL) | 0.5 µM | 96.8% | 8.5 | 37 ×10⁻⁶ cm/s | – | –
C=C(C)CCCc1n[nH]c2c1C(c1ccc(F)cc1)N(c1ccc(OC)cc1)C2=O (stereo not drawn) [Compound 14] | 20 µM | 50.1 µM | 17 µM (≈ 6.89 µg/mL) | 6.3 µM | 97.9% | 8.9 | 27 ×10⁻⁶ cm/s | – | –
COc1ccc(N2C(=O)c3[nH]nc(CCc4ccccc4)c3C2c2ccc(F)cc2)cc1 (stereo not drawn) [Compound 15] | 25.1 µM | 50.1 µM | 6 µM (≈ 2.56 µg/mL) | 6.3 µM | 98.0% | 9.7 | 36 ×10⁻⁶ cm/s | – | –
COc1ccc(N2C(=O)c3[nH]nc(-c4ccc5c(c4)CCC5)c3C2c2ccc(F)cc2)cc1 (stereo not drawn) [Compound 16] | 7.9 µM | 25.1 µM | 17 µM (≈ 7.47 µg/mL) | 5 µM | 97.8% | 10.6 | 13 ×10⁻⁶ cm/s | – | –
COc1ccc(N2C(=O)c3[nH]nc(-c4ccc(CC(C)C)cc4)c3C2c2ccc(F)cc2)cc1 (stereo not drawn) [Compound 17] | 7.9 µM | 15.8 µM | < 1 µM | 4 µM | 98.0% | 11.4 | 34 ×10⁻⁶ cm/s | – | –
CC(C)Cc1n[nH]c2c1C(c1ccc(F)cc1)N(c1ccc(O)cc1)C2=O (stereo not drawn) [Compound 18] | 39.8 µM | > 100 µM | – | 5 µM | 95.6% | 7.1 | 28.5 ×10⁻⁶ cm/s | ≥ 430 µM | –
CCOc1ccc(N2C(=O)c3[nH]nc(CC(C)C)c3C2c2ccc(F)cc2)cc1 (stereo not drawn) [Compound 19] | 20 µM | 50.1 µM | – | 1.6 µM | 97.5% | 8.9 | 25 ×10⁻⁶ cm/s | 38 µM (≈ 15 µg/mL) | –
CC(C)Cc1n[nH]c2c1C(c1ccc(F)cc1)N(c1ccc(OC(F)(F)F)cc1)C2=O (stereo not drawn) [Compound 20] | 7.9 µM | 25.1 µM | – | 3.2 µM | 98.1% | 9.8 | 29 ×10⁻⁶ cm/s | 5 µM (≈ 2.17 µg/mL) | –
CCc1ccc(N2C(=O)c3[nH]nc(CC(C)C)c3C2c2ccc(F)cc2)cc1 (stereo not drawn) [Compound 22] | 20 µM | 50.1 µM | – | 4 µM | 97.4% | 9.7 | < 1 ×10⁻⁶ cm/s | 9 µM (≈ 3.4 µg/mL) | –
CC(C)Cc1n[nH]c2c1C(c1ccc(F)cc1)N(c1ccc(F)cc1)C2=O (stereo not drawn) [Compound 23] | 25.1 µM | 50.1 µM | – | 6.3 µM | 97.7% | 8.8 | 12 ×10⁻⁶ cm/s | 61 µM (≈ 22.4 µg/mL) | –
CC(C)Cc1n[nH]c2c1C(c1ccc(F)cc1)N(c1ccc(Br)cc1)C2=O (stereo not drawn) [Compound 24, 5-(4-bromophenyl)-4-(4-fluorophenyl)-3-isobutyl-4,5-dihydropyrrolo[3,4-c]pyrazol-6(1H)-one] | 15.8 µM | 39.8 µM | – | 1.3 µM | 97.9% | 9.7 | 32 ×10⁻⁶ cm/s | 9 µM (≈ 3.85 µg/mL) | –
CC(C)Cc1n[nH]c2c1C(c1ccc(F)cc1)N(c1ccc(C(C)(C)C)cc1)C2=O (stereo not drawn) [Compound 25] | > 50 µM | 50.1 µM | – | 10 µM | 97.9% | 10.5 | 13 ×10⁻⁶ cm/s | < 1 µM | –
COC(=O)c1ccc(N2C(=O)c3[nH]nc(CC(C)C)c3C2c2ccc(F)cc2)cc1 (stereo not drawn) [Compound 26] | 31.6 µM | 39.8 µM | – | 1.6 µM | 97.5% | 8.5 | 41 ×10⁻⁶ cm/s | 26 µM (≈ 10.6 µg/mL) | –
CC(C)Cc1n[nH]c2c1C(c1ccc(F)cc1)N(c1ccc(C(=O)O)cc1)C2=O (stereo not drawn) [Compound 27] | > 50 µM | > 100 µM | – | > 50 µM | 95.2% | 4.9 | < 0.3 ×10⁻⁶ cm/s | ≥ 389 µM | –
CC(C)Cc1n[nH]c2c1C(c1ccc(F)cc1)N(c1ccc(-n3ccnc3)cc1)C2=O (stereo not drawn) [Compound 28] | > 50 µM | > 100 µM | – | 2.5 µM | 96.3% | 8.1 | < 0.3 ×10⁻⁶ cm/s | – | –
COc1ccccc1N1C(=O)c2[nH]nc(CC(C)C)c2C1c1ccc(F)cc1 (stereo not drawn) [Compound 29] | > 50 µM | 79.4 µM | – | 20 µM | 97.5% | 8.5 | 59 ×10⁻⁶ cm/s | – | 240 µM (≈ 91.1 µg/mL)
